Values of other authors in patent publication US10183022B2, “Pharmaceutical composition for treating ulcerative colitis” (EA Pharma Co., Ltd., priority 2014, dated 2019).

Tested on: administered patients
Conditions: among the administered patients, intravenous infusion; cited from earlier work

Infliximab: anti-TNFα antibody, given by intravenous infusion
Patients showing the loss of the response: ≤ 70%
